These results are taken from ChEMBL document CHEMBL4219163, “Discovery of 2,6-disubstituted pyrazine derivatives as inhibitors of CK2 and PIM kinases” (Bioorg Med Chem Lett, 2018).

Each structure is given as a SMILES string.

Series [1] can be described thus: Volume of distribution at steady state in Wistar Han rat at 3 mg/kg, iv or 10 mg/kg, po. The note with it: in vivo, read-out: Vdss. The class given is ADME, organism-based.
Series [2] can be described thus: Oral bioavailability in Wistar Han rat at 10 mg/kg. Particulars: in vivo. Type of series: ADME, organism-based.
A short description of series [3]: Lipophilicity, log D of the compound. Particulars: octanol/water. Type of series: physicochemical.
The nature of series [4]: Half life in Wistar Han rat at 3 mg/kg, iv. Type of series: ADME, organism-based. The note with it: in vivo.
Series [5] is described as follows: AUC (0 to t) in Wistar Han rat at 3 mg/kg, iv or 10 mg/kg, po. Type of series: ADME, organism-based. Particulars: in vivo.
The nature of series [6]: Clearance in Wistar Han rat at 3 mg/kg, iv. Type of series: ADME, organism-based. The note with it: in vivo.
The nature of series [7]: Cmax in Wistar Han rat at 3 mg/kg, iv or 10 mg/kg, po. Type of series: ADME, organism-based. The note with it: in vivo.

For the compound `CC(C)Nc1ccc2cnn(-c3cncc(-c4ccc(C(=O)O)cc4)n3)c2c1`, in series [1], the Vd stood at 1 L/kg. The bioavailability in series [2] stood at 24%. The logD in series [3] stood at 1.06. In series [4], this compound gave a half-life of 7.1 h. Besides, the AUC(0-t) in series [5] came out at 5.5 µM·h. Further, in series [6], the clearance amounted to 19 mL/min/kg. The concentration in series [7] peaked (Cmax) at 830 nM.
Consider `CC(C)Nc1ccc2ccn(-c3cncc(-c4ccc(C(=O)O)cc4)n3)c2c1`, for which the Vd in series [1] came out at 1.8 L/kg. Besides, the bioavailability in series [2] is 80%. For the same compound, the half-life in series [4] is 1 h. Moreover, in series [5], the AUC(0-t) turned out to be 5.5 µM·h. The compound also had a clearance in series [6] of 56 mL/min/kg. Further, the Cmax in series [7] was 2900 nM.
